pKi: −log10 of the molar value.
How the values were obtained:
[1] = biological target: T1, human recombinant prolyl endopeptidase (PREP) (Homo sapiens, UniProt P48147); experiment: PREP enzymatic activity assay (Z-Gly-Pro-pNA, photometric); assay type: biochemical; conditions: recombinant PREP, Z-Gly-Pro-pNA 62.5/125/250 μM, pH 7.6, 30°C, competitive fit
T1 construct: made in house
T1 sequence (P48147 1-710): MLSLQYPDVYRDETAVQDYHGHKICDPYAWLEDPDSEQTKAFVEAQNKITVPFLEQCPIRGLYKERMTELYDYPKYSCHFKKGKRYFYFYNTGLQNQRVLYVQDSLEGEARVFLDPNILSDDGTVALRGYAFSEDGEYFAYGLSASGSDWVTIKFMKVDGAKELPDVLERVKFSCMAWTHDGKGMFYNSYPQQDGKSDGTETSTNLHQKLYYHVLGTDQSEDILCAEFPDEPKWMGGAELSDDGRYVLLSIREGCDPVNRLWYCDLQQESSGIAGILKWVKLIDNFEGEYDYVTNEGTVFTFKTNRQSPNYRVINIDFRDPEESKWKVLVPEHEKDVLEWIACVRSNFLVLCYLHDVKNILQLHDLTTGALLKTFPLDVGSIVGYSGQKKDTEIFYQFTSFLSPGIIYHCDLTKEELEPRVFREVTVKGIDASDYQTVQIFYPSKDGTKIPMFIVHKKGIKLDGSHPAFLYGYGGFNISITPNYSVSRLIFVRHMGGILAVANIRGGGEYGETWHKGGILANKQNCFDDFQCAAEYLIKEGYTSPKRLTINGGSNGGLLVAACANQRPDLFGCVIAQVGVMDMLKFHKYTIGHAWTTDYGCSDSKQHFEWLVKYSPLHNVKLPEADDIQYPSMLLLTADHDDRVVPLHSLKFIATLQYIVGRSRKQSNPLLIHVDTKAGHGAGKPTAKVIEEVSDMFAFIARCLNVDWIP
Protocol: The activity of human recombinant prolyl endopeptidase (PREP) was determined photometrically using the substrate Z-Gly-Pro-pNA (Bachem, Weil am Rhein, Germany) usually at a concentration of 150 μM. As assay buffer 50 mM HEPES buffer pH 7.6, containing 200 mM NaCl, 1 mM EDTA, and 1 mM dithiothreitol was used. Release of pNA was monitored continuously at 405 nm for 15 min at 30°C in a 96-well plate reader (Spectrafluor, Tecan, Crailsheim, Germany). PREP activity was calculated from the slope of the time product curve with the help of a pNA standard. For determination of Ki values three different substrate concentrations (62.5 μM; 125 μM and 250 μM) and seven different inhibitor concentrations were analyzed. Substrate concentrations were selected to be at the Km value of Z-Gly-Pro-pNA (125 μM) as well as half and twice the Km. Data were fitted by non-linear regression to the competitive inhibitor equation (Graphit 5.0, Erithacus software).

[2] = system: LPS-induced IL-6 expression in C57/B6 mice; experiment: LPS-induced acute septic shock model (IL-6 in plasma, hippocampus, cortex); assay type: in vivo, mouse; conditions: 1 mg/kg LPS i.p., HAK-2 in parallel, 2 h
Protocol: A total number of 20 C57/B6 mice at the age of 5 months with an initial body weight of 22 g to 30 g was analyzed in this study. Mice were randomly assigned to 2 groups of control mice (injection of saline or LPS; n = 6 each) and 1 group of LPS-treated mice co-injected with compound HAK-2 (n = 8). Animals were housed at the Experimental Animal Core Facility of the University of Leipzig. The study was approved by the Regierungspräsidium Leipzig, License # TVV 28/07 on November 14, 2007. To induce septic shock and acute inflammation, 14 mice were injected intraperitoneally (i.p.) with 1 mg LPS (Serotyp 055:B5)/kg body weight. Saline injection i.p. was used as control treatment (n = 6). […] Two hours post treatment mice were sacrificed by CO2 inhalation and tissue samples from hippocampus and cortex as well as plasma were prepared as described later.
Mouse brain samples for qRT-PCR were prepared from 6 - 8 animals per group. After removal of the brain, the tissue samples were flushed shortly with ice cold saline and placed briefly on filter paper. Cortex and hippocampus were prepared, weighted and snap frozen in liquid nitrogen. Samples were stored at -80°C until RNA isolation. […]
Total RNA of cultured cells and homogenized mouse brain tissue samples was isolated using RNA isolation kit "NucleoSpin RNA II" from Macherey and Nagel. RNA quantity was measured by spectrophotometrical quantification (NanoDrop 2000, Peqlab, Erlangen, Germany). […] Quantitative real-time PCR was performed with QuantiFast SYBR Green PCR Master mix (Qiagen, Hilden, Germany) using Rotorgene 3000 system (Corbett, Sydney, Australia). […] Data were analyzed by Rotorgene 3000 Software version 6.0 by comparative quantitation. […]
Figure 6 Suppression of LPS-induced IL-6 expression in vivo by compound HAK-2. […] After 2 hours treatment, samples from hippocampus (A), cortex (B) and plasma (C) were prepared and analyzed by qRT-PCR and ELISA, respectively. […] Statistically significant differences between LPS group and LPS + HAK-2 group were calculated using the unpaired t-test (*p < 0.05; **p < 0.01; ***p < 0.001).

pKi [1]: 10.42
Compound: C[C@H](NC(=O)OCc1ccccc1)C(=O)N1CCC[C@H]1C(=O)c1nc2ccccc2s1 [HAK-2, Z-Ala-Pro-BTh]
Reduction of induced IL-6 mRNA in cortex [2]: 53% | Reduction of induced IL-6 mRNA in hippocampus [2]: 60% | Reduction of plasma level of IL-6 protein vs LPS alone [2]: 55%

Reference: article PMC3161871, “Heteroarylketones inhibit astroglial interleukin-6 expression via a STAT3/NF-κB signaling pathway” (Journal of Neuroinflammation, 2011)
